Reference: patent US9695155B2, “Herbicidal substituted pyrimidinyloxy benzene compounds” (E. I. DU PONT DE NEMOURS AND COMPANY, priority 2013, dated 2017)

What was measured:
[1] = test system: yellow nutsedge; experiment: Test C postemergence; format: in vivo, Cyperus esculentus; conditions: for Nutsedge, Yellow plant response rating: 31 g ai/ha
Summary of the method: (§1)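 Injury was assessed visually against controls 13 to 15 days after application, with 0 meaning no effect and 100 full control; missing entries are shown as a dash. Preemergence sprays hit seeded loam–sand soil, postemergence sprays hit 1- to 4-leaf plants.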

[2] = test system: giant foxtail; experiment: Test C postemergence; format: in vivo, Setaria faberii
Summary of the method: as §1

[3] = test system: corn; experiment: Test C postemergence; format: in vivo, Zea mays
Summary of the method: as §1

[4] = test system: wheat, winter; experiment: Test C postemergence; format: in vivo, Triticum aestivum; conditions: for Wheat plant response rating: 31 g ai/ha
Summary of the method: as §1

[5] = test system: kochia; experiment: Test C postemergence; format: in vivo, Kochia scoparia
Summary of the method: as §1

[6] = test system: corn; experiment: Test A postemergence; format: in vivo, Zea mays
Summary of the method: (§2)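 Injury scores run from 0, no effect, to 100, complete control, judged by eye against untreated plants roughly 10 days after treatment. Chemicals carried a surfactant in a non-phytotoxic solvent and went onto loam–sand soil preemergence or onto one- to two-leaf seedlings postemergence.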

[7] = test system: barnyardgrass; experiment: Test C postemergence; format: in vivo, Echinochloa crus-galli
Summary of the method: as §1

[8] = test system: giant foxtail; experiment: Test A postemergence; format: in vivo, Setaria faberii
Summary of the method: as §2

[9] = test system: blackgrass; experiment: Test C postemergence; format: in vivo, Alopecurus myosuroides
Summary of the method: as §1

[10] = 16 g ai/ha, postemergence, 0 is no effect, 100 is complete control
[11] = postemergence, visual rating, scale 0 to 100 (0 no effect, 100 complete control), 13 to 15 days
[12] = 125 g ai/ha, postemergence, visual rating, scale 0 to 100 (0 no effect, 100 complete control)
[13] = Postemergence, 62 g ai/ha, scale 0 to 100 (0 no effect, 100 complete control)
[14] = 31 g ai/ha, postemergence, visual rating, scale 0 to 100 (0 no effect, 100 complete control), 13 to 15 days
[15] = 1000 g ai/ha, 0 to 100 scale, 0 no effect, 100 complete control
[16] = Postemergence, 62 g ai/ha, scale 0 to 100 (0 no effect, 100 complete control), 13 to 15 days
[17] = 125 g ai/ha, 0 to 100 scale, 0 no effect, 100 complete control
[18] = 500 g ai/ha, 0 to 100 scale where 0 is no effect and 100 is complete control

SMILES: Fc1cccc(Oc2ncc(Cl)cn2)c1-n1cc(C2CC2)nn1 [Compound 155]
- Plant response rating (0 to 100), Nutsedge, Yellow [1, 10]: 5
- Nutsedge, Yellow plant response rating [1, 11]: 5
- Plant response rating, Nutsedge, Yellow [1, 12]: 5
- Plant response rating, Nutsedge, Yellow [1, 13]: 5
- Plant response rating (0 to 100), Foxtail, Giant [2, 10]: 0
- Foxtail, Giant plant response rating [2, 14]: 5
- Plant response rating, Foxtail, Giant [2, 12]: 25
- Plant response rating, Foxtail, Giant [2, 13]: 15
- Plant response rating (0 to 100), Corn [3, 10]: 5
- Corn plant response rating [3, 14]: 5
- Plant response rating, Corn [3, 12]: 10
- Plant response rating, Corn [3, 13]: 5
- Plant response rating (0 to 100), Wheat [4, 10]: 5
- Wheat plant response rating [4, 11]: 10
- Plant response rating, Wheat [4, 12]: 35
- Plant response rating, Wheat [4, 13]: 15
- Plant response rating (0 to 100), Kochia [5, 10]: 80
- Kochia plant response rating [5, 14]: 98
- Plant response rating, Kochia [5, 12]: 100
- Plant response rating, Kochia [5, 13]: 98
- Plant response rating, Corn [6, 15]: 100
- Plant response rating (0 to 100), Barnyardgrass [7, 10]: 0
- Barnyardgrass plant response rating [7, 14]: 5
- Plant response rating, Barnyardgrass [7, 12]: 10
- Plant response rating, Barnyardgrass [7, 13]: 5
- Plant response rating, Foxtail, Giant [8, 15]: 100
- Plant response rating (0 to 100), Blackgrass [9, 10]: 0
- Blackgrass plant response rating [9, 14]: 5
- Plant response rating, Blackgrass [9, 12]: 5
- Plant response rating, Blackgrass [9, 13]: 5

SMILES: Fc1cccc(Oc2ncc(Cl)cn2)c1-n1cc(Br)cn1 [Compound 178, 2-[2-(4-bromo-1H-pyrazol-1-yl)-3-fluorophenoxy]-5-chloropyrimidine]
- Nutsedge, Yellow plant response rating [1, 11]: 5
- pest or weed control at 16 g/ha ([1]; Cyperus, post-emergence, 16 g ai/ha, postemergence, 0 is no effect, 100 is complete control, read-out: Plant response rating (0 to 100), Nutsedge, Yellow): 5%
- pest or weed control at 125 g/ha ([1]; Cyperus, post-emergence, 125 g ai/ha, postemergence, visual rating, scale 0 to 100 (0 no effect, 100 complete control), read-out: Plant response rating, Nutsedge, Yellow): 10%
- pest or weed control at 62 g/ha ([1]; Cyperus, post-emergence, Postemergence, 62 g ai/ha, scale 0 to 100 (0 no effect, 100 complete control), read-out: Plant response rating, Nutsedge, Yellow): 5%
- pest or weed control at 16 g/ha ([2]; Setaria faberi, post-emergence, 16 g ai/ha, postemergence, 0 is no effect, 100 is complete control, read-out: Plant response rating (0 to 100), Foxtail, Giant): 5%
- pest or weed control at 31 g/ha ([2]; Setaria faberi, post-emergence, 31 g ai/ha, postemergence, visual rating, scale 0 to 100 (0 no effect, 100 complete control), 13 to 15 days, read-out: Foxtail, Giant plant response rating): 5%
- pest or weed control at 125 g/ha ([2]; Setaria faberi, post-emergence, 125 g ai/ha, postemergence, visual rating, scale 0 to 100 (0 no effect, 100 complete control), read-out: Plant response rating, Foxtail, Giant): 25%
- pest or weed control at 62 g/ha ([2]; Setaria faberi, post-emergence, Postemergence, 62 g ai/ha, scale 0 to 100 (0 no effect, 100 complete control), read-out: Plant response rating, Foxtail, Giant): 5%
- plant injury at 16 g/ha ([3]; Zea mays, post-emergence, 16 g ai/ha, postemergence, 0 is no effect, 100 is complete control, read-out: Plant response rating (0 to 100), Corn): 5%
- plant injury at 31 g/ha ([3]; Zea mays, post-emergence, 31 g ai/ha, postemergence, visual rating, scale 0 to 100 (0 no effect, 100 complete control), 13 to 15 days, read-out: Corn plant response rating): 10%
- Corn plant response rating (crop injury, 0 = no effect, 100 = complete kill) at 125 g/ha ([3]; Zea mays, post-emergence, 125 g ai/ha, postemergence, visual rating, scale 0 to 100 (0 no effect, 100 complete control)): 10%
- Corn plant response rating (crop injury, 0 = no effect, 100 = complete kill) at 62 g/ha ([3]; Zea mays, post-emergence, Postemergence, 62 g ai/ha, scale 0 to 100 (0 no effect, 100 complete control)): 10%
- Wheat plant response rating [4, 11]: 0
- plant injury at 16 g/ha ([4]; Triticum aestivum, post-emergence, 16 g ai/ha, postemergence, 0 is no effect, 100 is complete control, read-out: Plant response rating (0 to 100), Wheat): 0%
- plant injury at 125 g/ha ([4]; Triticum aestivum, post-emergence, 125 g ai/ha, postemergence, visual rating, scale 0 to 100 (0 no effect, 100 complete control), read-out: Plant response rating, Wheat): 0%
- plant injury at 62 g/ha ([4]; Triticum aestivum, post-emergence, Postemergence, 62 g ai/ha, scale 0 to 100 (0 no effect, 100 complete control), read-out: Plant response rating, Wheat): 0%
- pest or weed control at 16 g/ha ([5]; Bassia scoparia, post-emergence, 16 g ai/ha, postemergence, 0 is no effect, 100 is complete control, read-out: Plant response rating (0 to 100), Kochia): 60%
- pest or weed control at 31 g/ha ([5]; Bassia scoparia, post-emergence, 31 g ai/ha, postemergence, visual rating, scale 0 to 100 (0 no effect, 100 complete control), 13 to 15 days, read-out: Kochia plant response rating): 90%
- pest or weed control at 125 g/ha ([5]; Bassia scoparia, post-emergence, 125 g ai/ha, postemergence, visual rating, scale 0 to 100 (0 no effect, 100 complete control), read-out: Plant response rating, Kochia): 95%
- pest or weed control at 62 g/ha ([5]; Bassia scoparia, post-emergence, Postemergence, 62 g ai/ha, scale 0 to 100 (0 no effect, 100 complete control), read-out: Plant response rating, Kochia): 95%
- plant injury at 125 g/ha ([6]; Zea mays, post-emergence, 240 h, 125 g ai/ha, 0 to 100 scale where 0 is no effect and 100 is complete control, read-out: Corn plant response rating): 30%
- Corn plant response rating (crop injury, 0 = no effect, 100 = complete kill) at 500 g/ha ([6]; Zea mays, post-emergence, 240 h, 500 g ai/ha, 0 to 100 scale where 0 is no effect and 100 is complete control): 70%
- pest or weed control at 16 g/ha ([7]; Echinochloa crus-galli, post-emergence, 16 g ai/ha, postemergence, 0 is no effect, 100 is complete control, read-out: Plant response rating (0 to 100), Barnyardgrass): 5%
- pest or weed control at 31 g/ha ([7]; Echinochloa crus-galli, post-emergence, 31 g ai/ha, postemergence, visual rating, scale 0 to 100 (0 no effect, 100 complete control), 13 to 15 days, read-out: Barnyardgrass plant response rating): 5%
- pest or weed control at 125 g/ha ([7]; Echinochloa crus-galli, post-emergence, 125 g ai/ha, postemergence, visual rating, scale 0 to 100 (0 no effect, 100 complete control), read-out: Plant response rating, Barnyardgrass): 10%
- pest or weed control at 62 g/ha ([7]; Echinochloa crus-galli, post-emergence, Postemergence, 62 g ai/ha, scale 0 to 100 (0 no effect, 100 complete control), read-out: Plant response rating, Barnyardgrass): 5%
- pest or weed control at 125 g/ha ([8]; Setaria faberi, post-emergence, 240 h, 125 g ai/ha, 0 to 100 scale where 0 is no effect and 100 is complete control, read-out: Foxtail, Giant plant response rating): 90%
- pest or weed control at 500 g/ha ([8]; Setaria faberi, post-emergence, 240 h, 500 g ai/ha, 0 to 100 scale where 0 is no effect and 100 is complete control, read-out: Plant response rating, Foxtail, Giant): 100%
- pest or weed control at 16 g/ha ([9]; Alopecurus myosuroides, post-emergence, 16 g ai/ha, postemergence, 0 is no effect, 100 is complete control, read-out: Plant response rating (0 to 100), Blackgrass): 0%
- pest or weed control at 31 g/ha ([9]; Alopecurus myosuroides, post-emergence, 31 g ai/ha, postemergence, visual rating, scale 0 to 100 (0 no effect, 100 complete control), 13 to 15 days, read-out: Blackgrass plant response rating): 5%
- pest or weed control at 125 g/ha ([9]; Alopecurus myosuroides, post-emergence, 125 g ai/ha, postemergence, visual rating, scale 0 to 100 (0 no effect, 100 complete control), read-out: Plant response rating, Blackgrass): 60%
- pest or weed control at 62 g/ha ([9]; Alopecurus myosuroides, post-emergence, Postemergence, 62 g ai/ha, scale 0 to 100 (0 no effect, 100 complete control), read-out: Plant response rating, Blackgrass): 20%

SMILES: N#Cc1cccc(Oc2ncc(Cl)cn2)c1-n1cc(-n2ccc(C(F)(F)F)n2)cn1 [Compound 284]
- Nutsedge, Yellow plant response rating [1, 11]: 0
- Plant response rating, Nutsedge, Yellow [1, 12]: 0
- Plant response rating (0 to 100), Nutsedge, Yellow ([1]; 250 g ai/ha, postemergence): 5
- Plant response rating, Nutsedge, Yellow [1, 16]: 0
- Foxtail, Giant plant response rating [2, 14]: 10
- Plant response rating, Foxtail, Giant [2, 12]: 20
- Plant response rating (0 to 100), Foxtail, Giant ([2]; 250 g ai/ha, postemergence): 25
- Plant response rating, Foxtail, Giant [2, 16]: 10
- Corn plant response rating [3, 14]: 5
- Plant response rating, Corn [3, 12]: 20
- Plant response rating (0 to 100), Corn ([3]; 250 g ai/ha, postemergence): 20
- Plant response rating, Corn [3, 16]: 10
- Wheat plant response rating [4, 11]: 0
- Plant response rating, Wheat [4, 12]: 5
- Plant response rating (0 to 100), Wheat ([4]; 250 g ai/ha, postemergence): 5
- Plant response rating, Wheat [4, 16]: 5
- Kochia plant response rating [5, 14]: 100
- Plant response rating, Kochia [5, 12]: 100
- Plant response rating (0 to 100), Kochia ([5]; 250 g ai/ha, postemergence): 100
- Plant response rating, Kochia [5, 16]: 100
- Plant response rating, Corn [6, 17]: 20
- Plant response rating, Corn [6, 18]: 40
- Barnyardgrass plant response rating [7, 14]: 10
- Plant response rating, Barnyardgrass [7, 12]: 15
- Plant response rating (0 to 100), Barnyardgrass ([7]; 250 g ai/ha, postemergence): 15
- Plant response rating, Barnyardgrass [7, 16]: 10
- Plant response rating, Foxtail, Giant [8, 17]: 90
- Plant response rating, Foxtail, Giant [8, 18]: 90
- Blackgrass plant response rating [9, 14]: 5
- Plant response rating, Blackgrass [9, 12]: 5
- Plant response rating (0 to 100), Blackgrass ([9]; 250 g ai/ha, postemergence): 5
- Plant response rating, Blackgrass [9, 16]: 5
